We go through 8 molecules from ChEMBL document CHEMBL4665783, “N-terminal modified cyclopeptidic mimetics of Apollo as inhibitors of TRF2” (Bioorg Med Chem Lett, 2020).

One test deals with T1, Telomeric repeat-binding factor 2 (Homo sapiens, UniProt Q15554).
T1 sequence (Q15554 whole entry): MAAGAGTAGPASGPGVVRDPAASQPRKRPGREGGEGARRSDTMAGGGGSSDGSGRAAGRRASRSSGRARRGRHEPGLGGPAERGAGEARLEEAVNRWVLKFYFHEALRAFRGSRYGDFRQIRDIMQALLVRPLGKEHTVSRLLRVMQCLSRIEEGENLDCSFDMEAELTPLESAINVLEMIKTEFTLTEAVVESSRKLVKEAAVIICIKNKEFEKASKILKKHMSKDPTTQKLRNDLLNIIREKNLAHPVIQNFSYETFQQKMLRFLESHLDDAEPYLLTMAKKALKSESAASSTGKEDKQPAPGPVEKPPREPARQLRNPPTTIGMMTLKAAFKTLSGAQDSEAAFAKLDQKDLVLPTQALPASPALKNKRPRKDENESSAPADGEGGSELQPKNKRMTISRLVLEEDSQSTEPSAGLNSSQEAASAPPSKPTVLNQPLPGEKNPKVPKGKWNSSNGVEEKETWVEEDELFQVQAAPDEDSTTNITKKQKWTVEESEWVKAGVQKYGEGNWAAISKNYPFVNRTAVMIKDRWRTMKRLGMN
The test can be described thus: Binding affinity to biotinylated TRF2 (unknown origin) by biolayer interferometry assay.
Molecule `CC(C)C[C@@H]1NC(=O)[C@@H](NC(=O)c2cc(OCc3ccccc3)cc(OCC3CC3)c2)COCCCCOC[C@@H](C(=O)N(C)C)NC(=O)[C@@H]2CCCN2C(=O)[C@H](C)NC1=O` displayed a Kd of 2.5 µM.

The target in the next test is T1, Telomeric repeat-binding factor 2. The test can be described thus: Binding affinity to TRFH domain of TRF2 (residues 42 to 245) (unknown origin) by FP based assay.
`CC(C)C[C@@H]1NC(=O)[C@@H](NC(=O)c2cc(OCc3ccccc3)cc(OCC3CCCC3)c2)COCCCCOC[C@@H](C(=O)N(C)C)NC(=O)[C@@H]2CCCN2C(=O)[C@H](C)NC1=O` had a Ki of 6.9 µM.
The same measure, in the same setting: for `CC(C)C[C@@H]1NC(=O)[C@@H](NC(=O)c2cc(OCc3ccccc3)cc(OC3CCCC3)c2)COCCCCOC[C@@H](C(=O)N(C)C)NC(=O)[C@@H]2CCCN2C(=O)[C@H](C)NC1=O` the value was 5.1 µM; for `CC(C)C[C@@H]1NC(=O)[C@@H](NC(=O)c2cc(OCc3ccccc3)cc(OCC3CC3)c2)COCCCCOC[C@@H](C(=O)N(C)C)NC(=O)[C@@H]2CCCN2C(=O)[C@H](C)NC1=O`, 4.2 µM.
The same measure, in the same setting: then `CC(C)C[C@@H]1NC(=O)[C@@H](NC(=O)c2cc(OCc3ccccc3)cc(OC3CCC3)c2)COCCCCOC[C@@H](C(=O)N(C)C)NC(=O)[C@@H]2CCCN2C(=O)[C@H](C)NC1=O`, with 4.9 µM.
The molecule `CC(C)C[C@@H]1NC(=O)[C@@H](NC(=O)c2cc(OCc3ccccc3)cc(OCC3CCC3)c2)COCCCCOC[C@@H](C(=O)N(C)C)NC(=O)[C@@H]2CCCN2C(=O)[C@H](C)NC1=O` had a Ki of 4.3 µM.
Same read-out and setting: then Ac-LALKYLLTPV-NH2, with 0.33 µM; and `CC(C)C[C@@H]1NC(=O)[C@@H](NC(=O)c2cc(OCCN)cc(OCc3ccccc3)c2)COCCCCOC[C@@H](C(=O)N(C)C)NC(=O)[C@@H]2CCCN2C(=O)[C@H](C)NC1=O`, with 35 µM; and `CC(C)C[C@@H]1NC(=O)[C@@H](NC(=O)c2cc(OCc3ccccc3)cc(OC(C)C)c2)COCCCCOC[C@@H](C(=O)N(C)C)NC(=O)[C@@H]2CCCN2C(=O)[C@H](C)NC1=O`, with 11 µM.
